According to US11998539B2, “Substituted aminoquinolones as DGKalpha inhibitors for immune activation” (Bayer Aktiengesellschaft, priority 2019, dated 2024):

These compounds were tested against DGKα (Homo sapiens (Human), UniProt P23743) (assay: Human DGKα kinase activity inhibition assay (ADP-Glo)). Conditions: recombinant full-length human DGKα, 55 μM ATP, 7 μM 1,2-dioleoyl-sn-glycerol, read-out: IC50 values of examples in in vitro human DGKa kinase activity inhibition assays.
Type: biochemical
How it was run: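 Activity was measured as ADP production, detected by luciferase luminescence after removal of unused ATP. The enzyme was baculovirus-expressed full-length human DGKα with a C-terminal FLAG tag. The substrate was 1,2-dioleoyl-sn-glycerol in detergent micelles, and compounds came from 100× DMSO solutions.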

Chain of DGKα (P23743 other isoform, or with tags, fused parts or gaps): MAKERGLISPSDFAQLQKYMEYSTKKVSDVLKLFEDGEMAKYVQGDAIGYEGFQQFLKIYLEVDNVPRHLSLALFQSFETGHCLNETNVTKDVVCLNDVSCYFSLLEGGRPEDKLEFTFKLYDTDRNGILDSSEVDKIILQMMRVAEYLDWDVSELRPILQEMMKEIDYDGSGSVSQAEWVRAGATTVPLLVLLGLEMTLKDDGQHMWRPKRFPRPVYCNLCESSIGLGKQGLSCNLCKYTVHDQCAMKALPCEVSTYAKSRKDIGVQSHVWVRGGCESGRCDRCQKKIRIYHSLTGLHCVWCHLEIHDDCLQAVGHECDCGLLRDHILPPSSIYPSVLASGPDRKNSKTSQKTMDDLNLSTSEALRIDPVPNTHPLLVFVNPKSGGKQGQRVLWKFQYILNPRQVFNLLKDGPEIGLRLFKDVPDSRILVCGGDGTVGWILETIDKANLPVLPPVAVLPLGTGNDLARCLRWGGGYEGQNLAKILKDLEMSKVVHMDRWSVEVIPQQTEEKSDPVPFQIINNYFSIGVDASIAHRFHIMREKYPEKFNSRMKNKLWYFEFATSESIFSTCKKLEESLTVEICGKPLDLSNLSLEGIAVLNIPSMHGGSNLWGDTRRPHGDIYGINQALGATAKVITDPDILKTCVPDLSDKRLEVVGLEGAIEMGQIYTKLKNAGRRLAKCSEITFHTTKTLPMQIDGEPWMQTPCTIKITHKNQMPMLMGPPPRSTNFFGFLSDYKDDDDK

SMILES | IC50
Cc1ccc(C2CCN(c3c(C#N)c(=O)n(C)c4ccccc34)CC2)cn1 [Example 143, 1-methyl-4-[4-(6-methylpyridin-3-yl)piperidin-1-yl]-2-oxo-1,2-dihydroquinoline-3-carbonitrile] | 554 nM
Cc1cccc(-n2ccc(C3CCN(c4c(C#N)c(=O)n(C)c5ccccc45)CC3)n2)c1 [Example 366, 1-methyl-4-{4-[1-(3-methylphenyl)-1H-pyrazol-3-yl]piperidin-1-yl}-2-oxo-1,2-dihydroquinoline-3-carbonitrile] | 12 nM
CN1C(=O)C(C)(C)c2cc(C3CCN(c4c(C#N)c(=O)n(C)c5ccccc45)CC3)ccc21 [Example 358, 1-methyl-2-oxo-4-[4-(1,3,3-trimethyl-2-oxo-2,3-dihydro-1H-indol-5-yl)piperidin-1-yl]-1,2-dihydroquinoline-3-carbonitrile] | 44 nM
Cc1ccc2oc(C3CCN(c4c(C(N)=O)c(=O)n(C)c5cc(OC6CCOC6)c(C6(C(F)(F)F)CC6)cc45)CC3)nc2c1 (racemic) [Example 518, (rac)-1-methyl-4-[4-(5-methyl-1,3-benzoxazol-2-yl)piperidin-1-yl]-2-oxo-7-[(oxolan-3-yl)oxy]-6-[1-(trifluoromethyl)cyclopropyl]-1,2-dihydroquinoline-3-carboxamide] | 596 nM
Cn1c(=O)c(C(N)=O)c(N2CCC(c3nc4ccccc4o3)CC2)c2cccc(Cl)c21 [Example 309, 4-[4-(1,3-benzoxazol-2-yl)piperidin-1-yl]-8-chloro-1-methyl-2-oxo-1,2-dihydroquinoline-3-carboxamide] | 101 nM
Cc1ccc2oc(C3(C)CCN(c4c(C(N)=O)c(=O)n(C)c5ccc(C)cc45)CC3)nc2c1 [Example 198, 1,6-dimethyl-4-[4-methyl-4-(5-methyl-1,3-benzoxazol-2-yl)piperidin-1-yl]-2-oxo-1,2-dihydroquinoline-3-carboxamide] | 2.1 nM
Cn1c(=O)c(C#N)c(N2CCC(c3nc4ccc(Br)cc4o3)CC2)c2ccccc21 [Example 294, 4-[4-(6-bromo-1,3-benzoxazol-2-yl)piperidin-1-yl]-1-methyl-2-oxo-1,2-dihydroquinoline-3-carbonitrile] | 12 nM
COc1ccc2c(c1)c(N1CCC(c3nc(-c4ccccc4)no3)CC1)c(C(N)=O)c(=O)n2C [Example 521, 6-methoxy-1-methyl-2-oxo-4-[4-(3-phenyl-1,2,4-oxadiazol-5-yl)piperidin-1-yl]-1,2-dihydroquinoline-3-carboxamide] | 43 nM
Cn1c(=O)c(C#N)c(N2CCC(c3nc4cc(Cl)ccc4o3)CC2)c2ccccc21 [Example 11, 4-[4-(5-chloro-1,3-benzoxazol-2-yl)piperidin-1-yl]-1-methyl-2-oxo-1,2-dihydroquinoline-3-carbonitrile] | 3.8 nM
Cc1ccc2c(N3CCC(C)(c4nc5ccccc5o4)CC3)c(C#N)c(=O)n(C)c2c1 [Example 218, 4-[4-(1,3-benzoxazol-2-yl)-4-methylpiperidin-1-yl]-1,7-dimethyl-2-oxo-1,2-dihydroquinoline-3-carbonitrile] | 0.6 nM
Cn1c(=O)c(C(N)=O)c(N2CCC(c3nc4ccccc4o3)CC2)c2ccc(F)cc21 [Example 305, 4-[4-(1,3-benzoxazol-2-yl)piperidin-1-yl]-7-fluoro-1-methyl-2-oxo-1,2-dihydroquinoline-3-carboxamide] | 4.5 nM
Cc1ccc2oc(C3CCN(c4c(C(N)=O)c(=O)n(C)c5ccc(Br)cc45)CC3)nc2c1 [Example 492, 6-bromo-1-methyl-4-[4-(5-methyl-1,3-benzoxazol-2-yl)piperidin-1-yl]-2-oxo-1,2-dihydroquinoline-3-carboxamide] | 1.5 nM
Cc1ccc2c(c1)c(N1CCC(c3nc4ccc(Cl)cc4o3)CC1)c(C(N)=O)c(=O)n2C [Example 202, 4-[4-(6-chloro-1,3-benzoxazol-2-yl)piperidin-1-yl]-1,6-dimethyl-2-oxo-1,2-dihydroquinoline-3-carboxamide] | 2.7 nM
Cn1c(=O)c(C#N)c(N2CCC(c3cccc(NS(=O)(=O)c4ccccc4)c3)CC2)c2ccccc21 [Example 68, N-{3-[1-(3-cyano-1-methyl-2-oxo-1,2-dihydroquinolin-4-yl)piperidin-4-yl]phenyl}benzenesulfonamide] | 99 nM
Cn1c(=O)c(C#N)c(N2CCC(C)(c3nc4ccccc4o3)CC2)c2cc(F)ccc21 [Example 216, 4-[4-(1,3-benzoxazol-2-yl)-4-methylpiperidin-1-yl]-6-fluoro-1-methyl-2-oxo-1,2-dihydroquinoline-3-carbonitrile] | 0.4 nM
CCn1c(=O)c(C#N)c(N2CCC(c3ccc(Cl)cc3)CC2)c2ccccc21 [Example 333, 4-[4-(4-chlorophenyl)piperidin-1-yl]-1-ethyl-2-oxo-1,2-dihydroquinoline-3-carbonitrile] | 172 nM
Cc1ccc2oc(C3CCN(c4c(C#N)c(=O)n(C)c5cc(OC6COC6)ccc45)CC3)nc2c1 [Example 385, 1-methyl-4-[4-(5-methyl-1,3-benzoxazol-2-yl)piperidin-1-yl]-7-[(oxetan-3-yl)oxy]-2-oxo-1,2-dihydroquinoline-3-carbonitrile] | 0.9 nM

SMILES | IC50
Cn1c(=O)c(C(N)=O)c(N2CCC(C)(c3nnc(-c4cccc(Cl)c4)o3)CC2)c2ccccc21 [Example 465, 4-{4-[5-(3-chlorophenyl)-1,3,4-oxadiazol-2-yl]-4-methylpiperidin-1-yl}-1-methyl-2-oxo-1,2-dihydroquinoline-3-carboxamide] | 175 nM
Cc1ccc2oc(C3CCN(c4c(C(N)=O)c(=O)n(C)c5ccc(S(C)(=O)=O)cc45)CC3)nc2c1 [Example 454, 6-(methanesulfonyl)-1-methyl-4-[4-(5-methyl-1,3-benzoxazol-2-yl)piperidin-1-yl]-2-oxo-1,2-dihydroquinoline-3-carboxamide] | 373 nM
COc1ccccc1-c1csc(C2CCN(c3c(C(N)=O)c(=O)n(C)c4ccccc34)CC2)n1 [Example 477, 4-{4-[4-(2-methoxyphenyl)-1,3-thiazol-2-yl]piperidin-1-yl}-1-methyl-2-oxo-1,2-dihydroquinoline-3-carboxamide] | 3.9 nM
COc1ccc2c(c1)c(N1CCC(c3nc4cc(C)ccc4o3)CC1)c(C#N)c(=O)n2C [Example 402, 6-methoxy-1-methyl-4-[4-(5-methyl-1,3-benzoxazol-2-yl)piperidin-1-yl]-2-oxo-1,2-dihydroquinoline-3-carbonitrile] | 16 nM
Cn1c(=O)c(C#N)c(N2CCC(c3ccc4c(c3)C(C)(C)CN4)CC2)c2ccccc21 [Example 356, 4-[4-(3,3-dimethyl-2,3-dihydro-1H-indol-5-yl)piperidin-1-yl]-1-methyl-2-oxo-1,2-dihydroquinoline-3-carbonitrile] | 5.1 nM
Cc1ccc2oc(C3CCN(c4c(C(N)=O)c(=O)n(C)c5c(Br)cccc45)CC3)nc2c1 [Example 493, 8-bromo-1-methyl-4-[4-(5-methyl-1,3-benzoxazol-2-yl)piperidin-1-yl]-2-oxo-1,2-dihydroquinoline-3-carboxamide] | 80 nM
Cn1c(=O)c(C#N)c(N2CCC(c3nc4ccc(Br)cc4s3)CC2)c2ccccc21 [Example 14, 4-[4-(6-bromo-1,3-benzothiazol-2-yl)piperidin-1-yl]-1-methyl-2-oxo-1,2-dihydroquinoline-3-carbonitrile] | 4.4 nM
Cc1ccc2oc(C3(C)CCN(c4c(C#N)c(=O)n(C)c5ccc(C#N)cc45)CC3)nc2c1 [Example 207, 1-methyl-4-[4-methyl-4-(5-methyl-1,3-benzoxazol-2-yl)piperidin-1-yl]-2-oxo-1,2-dihydroquinoline-3,6-dicarbonitrile] | 2.7 nM
Cc1ccc2oc(C3CCN(c4c(C#N)c(=O)n(C)c5cc(O)ccc45)CC3)nc2c1 [Example 293, 7-hydroxy-1-methyl-4-[4-(5-methyl-1,3-benzoxazol-2-yl)piperidin-1-yl]-2-oxo-1,2-dihydroquinoline-3-carbonitrile] | 2.1 nM
CC(C)c1ccc2oc(C3CCN(c4c(C#N)c(=O)n(C)c5ccc(Br)cc45)CC3)nc2c1 [Example 170, 6-bromo-1-methyl-2-oxo-4-{4-[5-(propan-2-yl)-1,3-benzoxazol-2-yl]piperidin-1-yl}-1,2-dihydroquinoline-3-carbonitrile] | 7.2 nM
Cn1c(=O)c(C#N)c(N2CCC(O)(c3cc4ccccc4s3)CC2)c2ccccc21 [Example 340, 4-[4-(1-benzothiophen-2-yl)-4-hydroxypiperidin-1-yl]-1-methyl-2-oxo-1,2-dihydroquinoline-3-carbonitrile] | 72 nM
COc1ccc(C2CCN(c3c(C#N)c(=O)n(C)c4ccc(C#N)cc34)CC2)cc1 [Example 173, 4-[4-(4-methoxyphenyl)piperidin-1-yl]-1-methyl-2-oxo-1,2-dihydroquinoline-3,6-dicarbonitrile] | 12 nM
Cc1ccc2oc(C3CCN(c4c(C#N)c(=O)n(C)c5cc(OCC(N)=O)ccc45)CC3)nc2c1 [Example 413, 2-({3-cyano-1-methyl-4-[4-(5-methyl-1,3-benzoxazol-2-yl)piperidin-1-yl]-2-oxo-1,2-dihydroquinolin-7-yl}oxy)acetamide] | 1 nM
Cc1ccc2oc(C3CCN(c4c(C#N)c(=O)n(C)c5ccc(S(C)(=O)=O)cc45)CC3)nc2c1 [Example 339, 6-(methanesulfonyl)-1-methyl-4-[4-(5-methyl-1,3-benzoxazol-2-yl)piperidin-1-yl]-2-oxo-1,2-dihydroquinoline-3-carbonitrile] | 67 nM
Cc1ccc2c(N3CCC(c4ccccc4)CC3)c(C#N)c(=O)n(C)c2c1 [Example 255, 1,7-dimethyl-2-oxo-4-(4-phenylpiperidin-1-yl)-1,2-dihydroquinoline-3-carbonitrile] | 18 nM
Cc1ccc2oc(C3(C)CCN(c4c(C(N)=O)c(=O)n(C)c5ccccc45)CC3)nc2c1 [Example 302, 1-methyl-4-[4-methyl-4-(5-methyl-1,3-benzoxazol-2-yl)piperidin-1-yl]-2-oxo-1,2-dihydroquinoline-3-carboxamide] | 1.1 nM
